The source of these data is PMC8481536, “Wells–Dawson phosphotungstates as mushroom tyrosinase inhibitors: a speciation study” (Scientific Reports, 2021).

For the assay, the target named is T1, AbPPO4 (Agaricus bisporus, UniProt C7FF05, S179N/V121A).
T1 construct: GST (glutathione-S-transferase) (N, cleaved yes); made in house; host or cells: E. coli BL21(DE3)
It is filed as biochemical. Also on record: α · Ki: unit not given here. The conditions noted are these: for Inhibition type / α (inhibition parameter) from the Lineweaver–Burk intercepts / Ki / α (inhibition parameter) from activity plot: 50 mM Na-citrate pH 6.8; for Inhibition type: L-DOPA substrate; for α · Ki: from Lineweaver-Burk ordinate intercepts vs [I], [S] 0.4-[…] (Table S5); for α (inhibition parameter) from activity plot: hyperbolic fit. The protocol: AbPPO4 was purified and activated according to Pretzler et al.[15]. […] The diphenolase activity of tyrosinase was monitored using 1 mM L-DOPA (Fig. S1A) as the substrate. Considering that the Wells–Dawson POT stability is pH and possibly time dependent, a speciation study was performed which is detailed in the paragraph "Speciation of Wells–Dawson POT by ^183W-NMR and ^31P-NMR analyses at pH 6.8". The concentration of the investigated Wells–Dawson phosphotungstates was in the range between 0 and 5 mM. If enzymatic inhibition was observed, data were taken in triplicates and fitted with a hyperbolic function (cf. SI Eq. (5)) from a mixed inhibition model to evaluate the Ki and α-parameters. […] (Fig. S1B) was additionally tested and evaluated applying exactly the same mathematical model.
The type of enzymatic inhibition is usually investigated by linear plots according to Lineweaver–Burk, also allowing for further validation of the inhibitory constant Ki.[9] […] The slopes (SI Eq. (13), insets in Figs. S14–S17) and ordinate intercepts of these regression lines were further evaluated to validate the inhibitory constant Ki and the α-parameter from the non-linear regression procedure. […] Similarly, the Lineweaver–Burk ordinate intercepts were evaluated for the α-parameter (cf. Table S5 and Table 1).
UV–VIS measurements were carried out on a Shimadzu UV 2401PC following the specific absorption of dopachrome at 475 nm (ε = 3700 M^−1 cm^−1[7]). For all measurements, 50 mM Na-citrate at pH 6.8 was used as the buffer agent to ensure physiological conditions. The stock solutions of POTs were prepared on the day of measurements and used within 3 days.
For a general 1 mL reaction setup in a polystyrene cuvette, 1 µg/mL AbPPO4 (~ 23 nM) was used to catalyze the reaction. The relative inhibition was investigated using 1 mM L-DOPA as the substrate and applying an inhibitor concentration range from 0 to 5 mM to obtain activity curves. For the Lineweaver–Burk plots, a L-DOPA concentration range of 0.4–1.5 mM was assayed for three different POT concentrations, respectively. […]
is the enzymatic reaction velocity, the maximal enzymatic velocity of the enzyme, the concentration for the half-maximal velocity and the substrate concentration. If enzyme inhibition is taken into account, apparent values (e.g., , , ) are employed. For all inhibition mechanisms the apparent maximal velocity is given by and the apparent Michalis-Menten constant is Equations (3) and (2) are inserted into equation (1). To obtain the relative inhibition (in %), is divided by the uninhibited enzymatic velocity .
Herein, [I] refers to the inhibitor concentration, Ki is the inhibition constant measuring the […]
The three ideal inhibition types are reflected by three limiting conditions for α, with α as quotient of the inhibition constant of the uncompetitive and competitive inhibition:
(A) 0 < α <<1: uncompetitive inhibition
(B) α = 1: non-competitive inhibition
(C) α >> 1: competitive inhibition […]
uncompetitive and non-competitive inhibition modes.
The concentration of L-DOPA was kept constant at 1 mM for all experiments.
The final hyperbolic equation (5) was used for the curve

Where [1] appears, read: L-DOPA 0.4-[…], three inhibitor concentrations, read-out: Ki (inhibition constant) from the Lineweaver–Burk slopes.
Where [2] appears, read: hyperbolic fit of mixed inhibition model, 1 mM L-DOPA, 0-5 mM inhibitor, read-out: Ki (inhibition constant) from activity plot.

Like-named read-outs stand apart in the source and are kept apart here. Marks after values point to notes of the source that are not given here.

In general, Ki refers to a dissociation constant, usually derived from enzyme kinetics or from competition with a known ligand.

T1 sequence (C7FF05 1-383 V121A/S179N): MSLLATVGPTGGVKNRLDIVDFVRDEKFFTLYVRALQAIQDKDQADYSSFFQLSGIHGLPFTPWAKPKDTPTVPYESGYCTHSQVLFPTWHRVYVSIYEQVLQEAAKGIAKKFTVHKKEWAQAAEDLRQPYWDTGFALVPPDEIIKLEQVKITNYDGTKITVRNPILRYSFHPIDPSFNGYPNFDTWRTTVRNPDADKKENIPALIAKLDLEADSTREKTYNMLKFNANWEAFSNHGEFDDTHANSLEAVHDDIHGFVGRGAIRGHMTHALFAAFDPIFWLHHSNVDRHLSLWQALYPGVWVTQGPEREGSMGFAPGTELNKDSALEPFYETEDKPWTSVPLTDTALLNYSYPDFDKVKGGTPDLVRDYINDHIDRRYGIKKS

In the case of “K10[α2-P^V2W^VI17O61]·20H2O [[P2W17]^10−]”, the Inhibition type result is “mixed-type inhibition” and the “α · Ki” value turned out to be 0.10. Under “L-DOPA 0.4-[…]”, the “α (inhibition parameter) from the Lineweaver–Burk intercepts” value was 0.01^a, 0.01^b. Further, under setting [1], the inhibition constant Ki amounted to 10.6 mM. Also, the Ki under setting [2] amounted to 6.5 mM. Further, the “α (inhibition parameter) from activity plot” value (1 mM L-DOPA) is given as 0.01^a, 0.01^b.
Take K12[P^V2W^VI15O56]·24H2O [[P2W15]^12−]: the Inhibition type entry is reported as “mixed-type inhibition” and the “α · Ki” value is 2.14. For the same substance, the “α (inhibition parameter) from the Lineweaver–Burk intercepts” value (L-DOPA 0.4-[…]) was 0.20. Besides, the inhibitory constant (Ki) under setting [1] is 10.7 mM. For the same substance, the Ki under setting [2] was 13.6 mM. For the same substance, for the setting “1 mM L-DOPA”, the “α (inhibition parameter) from activity plot” value was determined as 0.003.
For “(NH4)12[H2P^V2W^VI12O48]·24H2O [[P2W12]^12−]”, the Inhibition type result is recorded as “mixed-type inhibition” and the “α · Ki” value came out at 1.58. For the same substance, the “α (inhibition parameter) from the Lineweaver–Burk intercepts” value (L-DOPA 0.4-[…]) was found to be 0.28. The inhibition constant (Ki) under setting [1] was 5.6 mM. Further, the Ki under setting [2] is 7.5 mM. Besides, the “α (inhibition parameter) from activity plot” value (1 mM L-DOPA) turned out to be 0.017.
As to “K6[α/β-P^V2W^VI18O62]·14H2O [[P2W18]^6−]”, the Inhibition type entry is given as “mixed-type inhibition” and the “α · Ki” value was 2.85. For the setting “L-DOPA 0.4-[…]”, the “α (inhibition parameter) from the Lineweaver–Burk intercepts” value was determined as 0.22. Besides, the Ki under setting [1] is 13 mM. The Ki under setting [2] is 9.7 mM. The “α (inhibition parameter) from activity plot” value (1 mM L-DOPA) was 0.013.
